Experimental data published in patent publication US9593105B2, “Cyclic amines” (H. Lundbeck A/S, priority 2012, dated 2017).

Target: P2X7 receptor (Homo sapiens (Human), UniProt Q99572)
Experiment: P2X7 FLIPR assay (BzATP-stimulated, Fluo-4 fluorescence) in stably transfected 293 HEK cells
Assay type: cell-based
Experimental: This example illustrates representative assays for use in evaluating the test compounds for antagonist activity. Compounds of the present invention were tested in vitro for their ability to act as antagonists to the P2X7 receptor.
Cells were plated to cell density of approximately 15,000 cells/well in 384-well assay plates (50 μl/well) with 1.5% low serum media (DMEM, 1.5% BCS, 1% L-glut (2 mM), 1% P/S).
Cells were plated to cell density of approximately 15,000 cells/well in 384-well assay plates (50 μl/well) with 1.5% low serum media (DMEM, 1.5% FBS, 1% L-glut (2 mM), 10 mM HEPES, 1% P/S). Cells were plated 24 hours prior to assay. Cells expressing human, rat or mouse P2X7 receptor were assayed in the following manner.
Fluo-4 NW dye mix (Molecular Probes, Inc., Eugene, Oreg., USA) was prepared in buffer (see manufacturer's instructions). Cell plates were removed from the 37° C. incubator, the media discarded and then 30 μL of dye was added to each well. Plates were placed in the 37° C., non-CO2 incubator for 30 minutes and then room temperature for 30 minutes.
Compound mixtures (A) were added to assay plates containing cells and placed at room temperature for 30 minutes, then BzATP (B) was added. Fluorescence was read using the Tetra FLIPR® (Molecular Devices, Inc., Sunnyvale, Calif., USA) and IC50 values were calculated by standard methods to determine antagonist activity.

Chain of P2X7 receptor (Q99572 whole entry): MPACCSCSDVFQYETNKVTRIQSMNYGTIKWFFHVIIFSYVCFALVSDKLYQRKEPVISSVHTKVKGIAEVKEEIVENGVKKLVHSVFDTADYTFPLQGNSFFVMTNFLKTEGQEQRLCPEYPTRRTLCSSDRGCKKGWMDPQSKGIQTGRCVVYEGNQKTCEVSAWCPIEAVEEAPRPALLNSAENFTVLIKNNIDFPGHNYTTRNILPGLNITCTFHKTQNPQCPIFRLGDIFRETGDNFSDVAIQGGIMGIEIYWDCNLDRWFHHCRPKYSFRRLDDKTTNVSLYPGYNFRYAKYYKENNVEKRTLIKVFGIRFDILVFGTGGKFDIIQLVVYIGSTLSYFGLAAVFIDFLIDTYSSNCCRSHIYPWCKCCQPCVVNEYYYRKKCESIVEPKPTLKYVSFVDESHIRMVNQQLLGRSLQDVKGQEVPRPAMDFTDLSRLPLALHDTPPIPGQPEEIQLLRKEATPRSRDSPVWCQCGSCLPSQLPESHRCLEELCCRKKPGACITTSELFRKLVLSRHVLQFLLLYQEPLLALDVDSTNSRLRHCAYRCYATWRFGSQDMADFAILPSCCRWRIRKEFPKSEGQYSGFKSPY

IC50 [nM]	SMILES
4.3	COc1ccc(C(=O)NCC(c2cnc(C(F)(F)F)nc2)N2CCC(F)(F)CC2)c(Cl)c1 (single isomer, unassigned; (+)) [(+)2-chloro-N-[2-(4,4-difluoro-1-piperidyl)-2-[2-(trifluorom] [(+)2-chloro-4-methoxy-N-(2-(4,4-difluoropiperidin-1-yl)-2-(2-(trifluoromethyl)pyrimidin-5-yl)ethyl)benzamide]
5.8	O=C(NCC(c1cnc(C2CC2)nc1)N1CCC(F)(F)CC1)c1c(Cl)cccc1Cl (single isomer, unassigned; (-)) [(−)2,6-dichloro-N-[2-(2-cyclopropylpyrimidin-5-yl)-2-(4,4-di] [(−)2,6-dichloro-N-(2-(2-cyclopropylpyrimidin-5-yl)-2-(4,4-difluoropiperidin-1-yl)ethyl)benzamide]
